Consider 33 compounds from patent publication US8846698B2, “Pyrrolo[2,3-d]pyrimidine tropomysin-related kinase inhibitors” (Pfizer Limited, priority 2011, dated 2014).

Structures are written as SMILES.

Chain of TRKA (P04629 441-796): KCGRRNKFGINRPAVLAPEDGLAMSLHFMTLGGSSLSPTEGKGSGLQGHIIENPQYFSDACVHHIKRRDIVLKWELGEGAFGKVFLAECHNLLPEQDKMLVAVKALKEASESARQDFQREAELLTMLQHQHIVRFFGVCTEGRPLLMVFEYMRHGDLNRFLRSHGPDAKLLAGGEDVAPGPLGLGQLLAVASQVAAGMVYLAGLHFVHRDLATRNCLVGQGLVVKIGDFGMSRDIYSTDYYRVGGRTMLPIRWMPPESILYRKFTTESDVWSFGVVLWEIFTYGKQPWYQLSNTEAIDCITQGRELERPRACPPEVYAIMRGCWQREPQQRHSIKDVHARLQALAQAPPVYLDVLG

The assay addresses TRKA (Homo sapiens (Human), UniProt P04629). The experiment in a line: Isolated TRK enzyme assay (HTRF KinEASE-TK), TRKA. The note with it: read-out: Trka enzyme (IC50). It counts as biochemical.
Take `Cn1cc(C(=O)c2cncc(NC(=O)Cc3c(F)ccc(F)c3F)c2)c2cncnc21` [Example 172, N-{5-[(7-methyl-7H-pyrrolo[2,3-d]pyrimidin-5-yl)carbonyl]pyridin-3-yl}-2-(2,3,6-trifluorophenyl)acetamide]: the half-maximal inhibitory concentration (IC50) came to 3840 nM.

With `Cn1cc(C(=O)c2cncc(NC(=O)Cc3ccc(S(C)(=O)=O)cc3)c2)c2cncnc21` [Example 173, N-{5-[(7-methyl-7H-pyrrolo[2,3-d]pyrimidin-5-yl)carbonyl]pyridin-3-yl}-2-[4-(methylsulfonyl)phenyl]acetamide], the IC50 came to 9810 nM. Then `Cn1cc(C(=O)c2cncc(NC(=O)Cc3ccc(C(F)(F)F)c(F)c3)c2)c2cncnc21` [Example 174, 2-[3-fluoro-4-(trifluoromethyl)phenyl]-N-{5-[(7-methyl-7H-pyrrolo[2,3-d]pyrimidin-5-yl)carbonyl]pyridin-3-yl}acetamide], with 210 nM; and `COc1cccc(CC(=O)Nc2cncc(C(=O)c3cn(C)c4ncncc34)c2)c1` [Example 175, 2-(3-methoxyphenyl)-N-{5-[(7-methyl-7H-pyrrolo[2,3-d]pyrimidin-5-yl)carbonyl]pyridin-3-yl}acetamide], with 2590 nM; and `Cn1cc(C(=O)c2cncc(NC(=O)Cc3cccc(OC(F)(F)F)c3)c2)c2cncnc21` [Example 176, N-{5-[(7-methyl-7H-pyrrolo[2,3-d]pyrimidin-5-yl)carbonyl]pyridin-3-yl}-2-[3-(trifluoromethoxy)phenyl]acetamide], with 165 nM.

For `Cn1cc(C(=O)c2cncc(NC(=O)Cc3cc(F)cc(F)c3F)c2)c2cncnc21` [Example 177, N-{5-[(7-methyl-7H-pyrrolo[2,3-d]pyrimidin-5-yl)carbonyl]pyridin-3-yl}-2-(2,3,5-trifluorophenyl)acetamide], the half-inhibitory concentration (IC50) was 3100 nM. Then `Cc1ccc2ccc(CC(=O)Nc3cncc(C(=O)c4cn(C)c5ncncc45)c3)cc2n1` [Example 178, N-{5-[(7-methyl-7H-pyrrolo[2,3-d]pyrimidin-5-yl)carbonyl]pyridin-3-yl}-2-(2-methylquinolin-7-yl)acetamide], with 3100 nM. The value for `Cn1cc(C(=O)c2cncc(NC(=O)Cc3ccccc3)c2)c2cncnc21` [Example 179, N-{5-[(7-methyl-7H-pyrrolo[2,3-d]pyrimidin-5-yl)carbonyl]pyridin-3-yl}-2-phenylacetamide] was 3080 nM. The value for `Cn1cc(C(=O)c2cncc(NC(=O)Cc3c(F)cccc3Cl)c2)c2cncnc21` [Example 180, 2-(2-chloro-6-fluorophenyl)-N-{5-[(7-methyl-7H-pyrrolo[2,3-d]pyrimidin-5-yl)carbonyl]pyridin-3-yl}acetamide] was 3100 nM. Take `COc1ccc(CC(=O)Nc2cncc(C(=O)c3cn(C)c4ncncc34)c2)cc1` [Example 181, 2-(4-methoxyphenyl)-N-{5-[(7-methyl-7H-pyrrolo[2,3-d]pyrimidin-5-yl)carbonyl]pyridin-3-yl}acetamide]: the IC50 amounted to 3100 nM. For the compound `Cn1cc(C(=O)c2cncc(NC(=O)Cc3ccc(SC(F)(F)F)cc3)c2)c2cncnc21` [Example 182, N-{5-[(7-methyl-7H-pyrrolo[2,3-d]pyrimidin-5-yl)carbonyl]pyridin-3-yl}-2-{4-[(trifluoromethyl)thio]phenyl}acetamide], the IC50 is 543 nM. The value for `Cn1cc(C(=O)c2cncc(NC(=O)Cc3ccc(-c4ccccc4)cc3)c2)c2cncnc21` [Example 183, 2-biphenyl-4-yl-N-{5-[(7-methyl-7H-pyrrolo[2,3-d]pyrimidin-5-yl)carbonyl]pyridin-3-yl}acetamide] was 1850 nM; that for `Cn1cc(C(=O)c2cncc(NC(=O)Cc3cc(F)c(F)cc3F)c2)c2cncnc21` [Example 184, N-{5-[(7-methyl-7H-pyrrolo[2,3-d]pyrimidin-5-yl)carbonyl]pyridin-3-yl}-2-(2,4,5-trifluorophenyl)acetamide] was 579 nM. Take `Cn1cc(C(=O)c2cncc(NC(=O)Cc3cccc(SC(F)(F)F)c3)c2)c2cncnc21` [Example 185, N-{5-[(7-methyl-7H-pyrrolo[2,3-d]pyrimidin-5-yl)carbonyl]pyridin-3-yl}-2-{3-[(trifluoromethyl)thio]phenyl}acetamide]: the concentration for half-maximal inhibition (IC50) was found to be 67.4 nM. In the case of `Cc1ccc(CC(=O)Nc2cncc(C(=O)c3cn(C)c4ncncc34)c2)cc1` [Example 186, 2-(4-methylphenyl)-N-{5-[(7-methyl-7H-pyrrolo[2,3-d]pyrimidin-5-yl)carbonyl]pyridin-3-yl}acetamide], the IC50 was 719 nM. Regarding `Cn1cc(C(=O)c2cncc(NC(=O)Cc3cc(F)c(F)c(F)c3)c2)c2cncnc21` [Example 187, N-{5-[(7-methyl-7H-pyrrolo[2,3-d]pyrimidin-5-yl)carbonyl]pyridin-3-yl}-2-(3,4,5-trifluorophenyl)acetamide], the IC50 was 2630 nM. Turning to `Cc1ccc(CC(=O)Nc2cncc(C(=O)c3cn(C)c4ncncc34)c2)c(C)c1` [Example 188, 2-(2,4-dimethylphenyl)-N-{5-[(7-methyl-7H-pyrrolo[2,3-d]pyrimidin-5-yl)carbonyl]pyridin-3-yl}acetamide], the IC50 came to 277 nM. Turning to `Cn1cc(C(=O)c2cncc(NC(=O)Cc3ccc4c(c3)CCO4)c2)c2cncnc21` [Example 189, 2-(2,3-dihydro-1-benzofuran-5-yl)-N-{5-[(7-methyl-7H-pyrrolo[2,3-d]pyrimidin-5-yl)carbonyl]pyridin-3-yl}acetamide], the IC50 is 836 nM. Turning to `Cn1cc(C(=O)c2cncc(NC(=O)Cc3cc(F)ccc3F)c2)c2cncnc21` [Example 190, 2-(2,5-difluorophenyl)-N-{5-[(7-methyl-7H-pyrrolo[2,3-d]pyrimidin-5-yl)carbonyl]pyridin-3-yl}acetamide], the IC50 was found to be 820 nM. For the compound `Cn1cc(C(=O)c2cncc(NC(=O)Cc3ccc(F)cc3F)c2)c2cncnc21` [Example 191, 2-(2,4-difluorophenyl)-N-{5-[(7-methyl-7H-pyrrolo[2,3-d]pyrimidin-5-yl)carbonyl]pyridin-3-yl}acetamide], the IC50 came out at 873 nM. For the compound `Cn1cc(C(=O)c2cncc(NC(=O)Cc3cccc(C(F)(F)F)c3F)c2)c2cncnc21` [Example 192, 2-[2-fluoro-3-(trifluoromethyl)phenyl]-N-{5-[(7-methyl-7H-pyrrolo[2,3-d]pyrimidin-5-yl)carbonyl]pyridin-3-yl}acetamide], the IC50 was determined as 173 nM. Then `Cn1cc(C(=O)c2cncc(NC(=O)Cc3c(F)cccc3F)c2)c2cncnc21` [Example 193, 2-(2,6-difluorophenyl)-N-{5-[(7-methyl-7H-pyrrolo[2,3-d]pyrimidin-5-yl)carbonyl]pyridin-3-yl}acetamide], with 3570 nM. `Cn1cc(C(=O)c2cncc(NC(=O)Cc3cccc(C(F)(F)F)c3)c2)c2cncnc21` [Example 194, N-{5-[(7-methyl-7H-pyrrolo[2,3-d]pyrimidin-5-yl)carbonyl]pyridin-3-yl}-2-[3-(trifluoromethyl)phenyl]acetamide]: the IC50 was 101 nM. Then `Cn1cc(C(=O)c2cncc(NC(=O)Cc3ccc(F)c(F)c3)c2)c2cncnc21` [Example 195, 2-(3,4-difluorophenyl)-N-{5-[(7-methyl-7H-pyrrolo[2,3-d]pyrimidin-5-yl)carbonyl]yridine-3-yl}acetamide], with 835 nM. The value for `Cn1cc(C(=O)c2cncc(NC(=O)Cc3ccc(OC(F)(F)F)cc3)c2)c2cncnc21` [Example 196, N-{5-[(7-methyl-7H-pyrrolo[2,3-d]pyrimidin-5-yl)carbonyl]yridine-3-yl}-2-[4-(trifluoromethoxy)phenyl]acetamide] was 791 nM. The value for `Cn1cc(C(=O)c2cncc(NC(=O)Cc3cccc(Cl)c3)c2)c2cncnc21` [Example 197, 2-(3-chlorophenyl)-N-{5-[(7-methyl-7H-pyrrolo[2,3-d]pyrimidin-5-yl)carbonyl]yridine-3-yl}acetamide] was 430 nM; that for `Cn1cc(C(=O)c2cncc(NC(=O)CCc3ccccc3Cl)c2)c2cncnc21` [Example 198, 3-(2-chlorophenyl)-N-{5-[(7-methyl-7H-pyrrolo[2,3-d]pyrimidin-5-yl)carbonyl]pyridin-3-yl}propanamide] was 2350 nM; that for `CC(C)(C)n1cc(C(=O)c2cncc(NC(=O)Cc3coc(C4CC4)n3)c2)c2cncnc21` [Example 199, N-{5-[(7-tert-butyl-7H-pyrrolo[2,3-d]pyrimidin-5-yl)carbonyl]pyridin-3-yl}-2-(2-cyclopropyl-1,3-oxazol-4-yl)acetamide] was 22.1 nM. Take `CC(C)(C)n1cc(C(=O)c2cncc(NC(=O)Cc3cccc(S(C)(=O)=O)c3)c2)c2cncnc21` [Example 200, N-{5-[(7-tert-butyl-7H-pyrrolo[2,3-d]pyrimidin-5-yl)carbonyl]pyridin-3-yl}-2-[3-(methylsulfonyl)phenyl]acetamide]: the IC50 came out at 10.1 nM. The value for `Cc1nn(C)cc1CC(=O)Nc1cncc(C(=O)c2cn(C(C)(C)C)c3ncncc23)c1` [Example 201, N-{5-[(7-tert-butyl-7H-pyrrolo[2,3-d]pyrimidin-5-yl)carbonyl]pyridin-3-yl}-2-(1,3-dimethyl-1H-pyrazol-4-yl)acetamide] was 482 nM; that for `Cn1cc(CC(=O)Nc2cncc(C(=O)c3cn(C(C)(C)C)c4ncncc34)c2)cn1` [Example 202, N-{5-[(7-tert-butyl-7H-pyrrolo[2,3-d]pyrimidin-5-yl)carbonyl]pyridin-3-yl}-2-(1-methyl-1H-pyrazol-4-yl)acetamide] was 412 nM; that for `Cn1cc(CC(=O)Nc2cncc(C(=O)c3cn(C(C)(C)C)c4ncncc34)c2)c(C2CC2)n1` [Example 203, N-{5-[(7-tert-butyl-7H-pyrrolo[2,3-d]pyrimidin-5-yl)carbonyl]pyridin-3-yl}-2-(3-cyclopropyl-1-methyl-1H-pyrazol-4-yl)acetamide] was 316 nM. On to `C[C@@H](CO)n1cc(C(=O)c2cncc(NC(=O)Cc3cccc(C(F)(F)F)c3)c2)c2cncnc21` [Example 204, N-[5-({7-[(1S)-2-hydroxy-1-methylethyl]-7H-pyrrolo[2,3-d]pyrimidin-5-yl}carbonyl)pyridin-3-yl]-2-[3-(trifluoromethyl)phenyl]acetamide], for which the IC50 worked out at 4.24 nM.
